Target: RIPK2 enzyme (Homo sapiens (Human), UniProt O43353)
Experiment: RIPK2 inhibition assay, TR-FRET LanthaScreen Tracer 199 screening assay
Format: binding
Settings: 5 nM RIPK2 enzyme, Tracer 199 at 50 nM, Eu-anti-His Antibody at 2 nM, 1 hour incubation
Protocol: All data was collected using a standard TR-FRET screening assay: LanthaScreen Tracer 199 at 50 nM, Eu-anti-His Antibody at 2 nM, 5 nM RIPK2 enzyme, and 1× Kinase Reaction Buffer. There was a 1 hour incubation prior to read. TR-FRET signal of the interaction (340Ex/665Em/615Em) was read at room temperature with standard setting. Background was subtracted of wells containing no enzyme. Percent inhibition was based on uninhibited controls log (inhibitor) vs. response. Variable slope equation was used with no constraints: Log Y=Bottom+(Top−Bottom)/(1+10^((Log IC50−X)*Hill Slope)).
The compound numbers correspond to the compound numbers above.

Sequence of RIPK2 enzyme (O43353 whole entry): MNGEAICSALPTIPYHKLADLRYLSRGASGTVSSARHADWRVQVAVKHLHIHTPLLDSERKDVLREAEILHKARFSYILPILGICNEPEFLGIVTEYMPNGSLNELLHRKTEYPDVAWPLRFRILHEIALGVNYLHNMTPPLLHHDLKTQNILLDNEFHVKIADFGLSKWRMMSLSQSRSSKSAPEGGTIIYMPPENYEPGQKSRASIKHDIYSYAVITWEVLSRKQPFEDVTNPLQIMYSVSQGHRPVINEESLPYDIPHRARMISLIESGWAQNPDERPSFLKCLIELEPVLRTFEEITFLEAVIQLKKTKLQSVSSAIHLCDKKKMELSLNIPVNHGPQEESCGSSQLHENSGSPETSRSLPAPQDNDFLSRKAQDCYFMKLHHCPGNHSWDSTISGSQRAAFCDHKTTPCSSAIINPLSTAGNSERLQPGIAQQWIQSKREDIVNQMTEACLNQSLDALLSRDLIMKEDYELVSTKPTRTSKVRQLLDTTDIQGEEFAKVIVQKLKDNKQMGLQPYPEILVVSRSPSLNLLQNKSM

IC50 [nM] | SMILES
≤ 10 | CC1C(c2cc3c(Nc4ccc5scnc5c4)ccnc3s2)=CCN1C (stereo not shown) [Example 27, N-(2-(1,2-dimethyl-2,5-dihydro-1H-pyrrol-3-yl)thieno[2,3-b]pyridin-4-yl)benzo[d]thiazol-5-amine]
≤ 10 | CC1C(c2cc3c(Nc4ccc5scnc5c4)ccnc3s2)CCN1C (stereo not shown) [Example 28, N-(2-(1,2-dimethylpyrrolidin-3-yl)thieno[2,3-b]pyridin-4-yl)benzo[d]thiazol-5-amine]
≤ 10 | CCN1CCC(c2cc3c(Nc4ccc5scnc5c4)ccnc3s2)C1C (stereo not shown) [Example 30, N-(2-(1-ethyl-2-methylpyrrolidin-3-yl)thieno[2,3-b]pyridin-4-yl)benzo[d]thiazol-5-amine]
≤ 10 | CC1C(c2cc3c(Nc4ccc5scnc5c4)ccnc3s2)CCN1CCO (stereo not shown) [Example 31, 2-(3-(4-(benzo[d]thiazol-5-ylamino)thieno[2,3-b]pyridin-2-yl)-2-methylpyrrolidin-1-yl)ethan-1-ol]
≤ 10 | CC1(C)NCC=C1c1cc2c(Nc3ccc4scnc4c3)ccnc2s1 [Example 32, N-(2-(2,2-dimethyl-2,5-dihydro-1H-pyrrol-3-yl)thieno[2,3-b]pyridin-4-yl)benzo[d]thiazol-5-amine]
≤ 10 | CC1(C)NCCC1c1cc2c(Nc3ccc4scnc4c3)ccnc2s1 (stereo not shown) [Example 33, N-(2-(2,2-dimethylpyrrolidin-3-yl)thieno[2,3-b]pyridin-4-yl)benzo[d]thiazol-5-amine]
≤ 10 | CN1CC=C(c2cc3c(Nc4ccc5scnc5c4)ccnc3s2)C1(C)C [Example 34, N-(2-(1,2,2-trimethyl-2,5-dihydro-1H-pyrrol-3-yl)thieno[2,3-b]pyridin-4-yl)benzo[d]thiazol-5-amine]
10 to 20 | CN1CCC(c2cc3c(Nc4ccc5scnc5c4)ccnc3s2)C1(C)C (stereo not shown) [Example 35, N-(2-(1,2,2-trimethylpyrrolidin-3-yl)thieno[2,3-b]pyridin-4-yl)benzo[d]thiazol-5-amine]
≤ 10 | CCN1CCC(c2cc3c(Nc4ccc5scnc5c4)ccnc3s2)C1(C)C (stereo not shown) [Example 37, N-(2-(1-ethyl-2,2-dimethylpyrrolidin-3-yl)thieno[2,3-b]pyridin-4-yl)benzo[d]thiazol-5-amine]
≤ 10 | CC1(C)C(c2cc3c(Nc4ccc5scnc5c4)ccnc3s2)CCN1CCO (stereo not shown) [Example 38, 2-(3-(4-(benzo[d]thiazol-5-ylamino)thieno[2,3-b]pyridin-2-yl)-2,2-dimethylpyrrolidin-1-yl)ethan-1-ol]
≤ 10 | C1=C(c2cc3c(Nc4ccc5scnc5c4)ccnc3s2)C2(COC2)NC1 [Example 39, N-(2-(2-oxa-5-azaspiro[3.4]oct-7-en-8-yl)thieno[2,3-b]pyridin-4-yl)benzo[d]thiazol-5-amine]
≤ 10 | C1=C(c2cc3c(Nc4ccc5scnc5c4)ccnc3s2)C2(CCOC2)NC1 (stereo not shown) [Example 40, N-(2-(7-oxa-1-azaspiro[4.4]non-3-en-4-yl)thieno[2,3-b]pyridin-4-yl)benzo[d]thiazol-5-amine]
10 to 20 | CN1CC=C(c2cc3c(Nc4ccc5scnc5c4)ccnc3s2)C12CCOC2 (stereo not shown) [Example 41, N-(2-(1-methyl-7-oxa-1-azaspiro[4.4]non-3-en-4-yl)thieno[2,3-b]pyridin-4-yl)benzo[d]thiazol-5-amine]
10 to 20 | c1cc(Nc2ccc3scnc3c2)c2cc(C3CCNC34CCOC4)sc2n1 (stereo not shown) [Example 42, N-(2-(7-oxa-1-azaspiro[4.4]nonan-4-yl)thieno[2,3-b]pyridin-4-yl)benzo[d]thiazol-5-amine]
20 to 50 | CN1CCC(c2cc3c(Nc4ccc5scnc5c4)ccnc3s2)C12CCOC2 (stereo not shown) [Example 43, N-(2-(1-methyl-7-oxa-1-azaspiro[4.4]nonan-4-yl)thieno[2,3-b]pyridin-4-yl)benzo[d]thiazol-5-amine]
≤ 10 | CCN1CC=C(c2cc3c(Nc4ccc5scnc5c4)ccnc3s2)C12CCOC2 (stereo not shown) [Example 44, N-(2-(1-ethyl-7-oxa-1-azaspiro[4.4]non-3-en-4-yl)thieno[2,3-b]pyridin-4-yl)benzo[d]thiazol-5-amine]
10 to 20 | CCN1CCC(c2cc3c(Nc4ccc5scnc5c4)ccnc3s2)C12CCOC2 (stereo not shown) [Example 45, N-(2-(1-ethyl-7-oxa-1-azaspiro[4.4]nonan-4-yl)thieno[2,3-b]pyridin-4-yl)benzo[d]thiazol-5-amine]
≤ 10 | C1=C(c2cc3c(Nc4ccc5scnc5c4)ccnc3s2)C2(CCOCC2)NC1 [Example 46, N-(2-(8-oxa-1-azaspiro[4.5]dec-3-en-4-yl)thieno[2,3-b]pyridin-4-yl)benzo[d]thiazol-5-amine]
≤ 10 | CCN1CC=C(c2cc3c(Nc4ccc5scnc5c4)ccnc3s2)C12CCOCC2 [Example 47, N-(2-(1-ethyl-8-oxa-1-azaspiro[4.5]dec-3-en-4-yl)thieno[2,3-b]pyridin-4-yl)benzo[d]thiazol-5-amine]

IC50 [nM] | SMILES
≥ 50 | CCN1CCC(c2cc3c(Nc4ccc5scnc5c4)ccnc3s2)C12CCOCC2 (stereo not shown) [Example 48, N-(2-(1-ethyl-8-oxa-1-azaspiro[4.5]decan-4-yl)thieno[2,3-b]pyridin-4-yl)benzo[d]thiazol-5-amine]
10 to 20 | C[C@H]1NCCC=C1c1cc2c(Nc3cc4ncsc4cc3F)ccnc2s1 [Example 49a, 6-fluoro-N-(2-(2-methyl-1,2,5,6-tetrahydropyridin-3-yl)thieno[2,3-b]pyridin-4-yl)benzo[d]thiazol-5-amine]
≤ 10 | C[C@@H]1NCCC=C1c1cc2c(Nc3cc4ncsc4cc3F)ccnc2s1 [Example 49b, 6-fluoro-N-(2-(2-methyl-1,2,5,6-tetrahydropyridin-3-yl)thieno[2,3-b]pyridin-4-yl)benzo[d]thiazol-5-amine]
≤ 10 | C[C@H]1NCCC[C@H]1c1cc2c(Nc3cc4ncsc4cc3F)ccnc2s1 [Example 50b, 6-fluoro-N-(2-((2R)-2-methylpiperidin-3-yl)thieno[2,3-b]pyridin-4-yl)benzo[d]thiazol-5-amine]
20 to 50 | C[C@@H]1NCCC[C@@H]1c1cc2c(Nc3cc4ncsc4cc3F)ccnc2s1 [Example 51b]
10 to 20 | CCN1CCC=C(c2cc3c(Nc4cc5ncsc5cc4F)ccnc3s2)[C@H]1C [Example 52a, N-(2-(1-ethyl-2-methyl-1,2,5,6-tetrahydropyridin-3-yl)thieno[2,3-b]pyridin-4-yl)-6-fluorobenzo[d]thiazol-5-amine]
10 to 20 | CCN1CCC=C(c2cc3c(Nc4cc5ncsc5cc4F)ccnc3s2)[C@@H]1C [Example 52b, N-(2-(1-ethyl-2-methyl-1,2,5,6-tetrahydropyridin-3-yl)thieno[2,3-b]pyridin-4-yl)-6-fluorobenzo[d]thiazol-5-amine]
≤ 10 | CCN1CCC[C@@H](c2cc3c(Nc4cc5ncsc5cc4F)ccnc3s2)[C@H]1C [Example 53b, N-(2-((2R)-1-ethyl-2-methylpiperidin-3-yl)thieno[2,3-b]pyridin-4-yl)-6-fluorobenzo[d]thiazol-5-amine]
20 to 50 | CCN1CCC[C@H](c2cc3c(Nc4cc5ncsc5cc4F)ccnc3s2)[C@@H]1C [Example 54b, N-(2-(1-ethyl-2-methylpiperidin-3-yl)thieno[2,3-b]pyridin-4-yl)-6-fluorobenzo[d]thiazol-5-amine]
≤ 10 | C[C@H]1NCCC[C@@H]1c1cc2c(Nc3ccc4scnc4c3F)ccnc2s1 [Example 56a, 4-fluoro-N-(2-((2R,3S)-2-methyl-piperidin-3-yl)thieno[2,3-b]pyridin-4-yl)benzo[d]thiazol-5-amine]
≤ 10 | C[C@H]1NCCC[C@H]1c1cc2c(Nc3ccc4scnc4c3F)ccnc2s1 [Example 56b, 4-fluoro-N-(2-((2R,3R)-2-methyl-piperidin-3-yl)thieno[2,3-b]pyridin-4-yl)benzo[d]thiazol-5-amine]
10 to 20 | C[C@@H]1NCCC[C@H]1c1cc2c(Nc3ccc4scnc4c3F)ccnc2s1 [Example 57a, 4-fluoro-N-(2-((2S,3R)-2-methylpiperidin-3-yl)thieno-[2,3-b]pyridin-4-yl)benzo[d]thiazol-5-amine]
≤ 10 | C[C@@H]1NCCC[C@@H]1c1cc2c(Nc3ccc4scnc4c3F)ccnc2s1 [Example 57b, 4-fluoro-N-(2-((2S,3S)-2-methylpiperidin-3-yl)thieno-[2,3-b]pyridin-4-yl)benzo[d]thiazol-5-amine]
≤ 10 | C[C@@H]1[C@@H](c2cc3c(Nc4ccc5scnc5c4F)ccnc3s2)CCCN1C [Example 58, N-(2-((2R,3S)-1,2-dimethylpiperidin-3-yl)thieno[2,3-b]pyridin-4-yl)-4-fluorobenzo[d]thiazol-5-amine]
≤ 10 | C[C@H]1[C@H](c2cc3c(Nc4ccc5scnc5c4F)ccnc3s2)CCCN1C [Example 59, N-(2-((2S,3R)-1,2-dimethylpiperidin-3-yl)thieno[2,3-b]pyridin-4-yl)-4-fluorobenzo[d]thiazol-5-amine]
≤ 10 | C[C@H]1[C@@H](c2cc3c(Nc4ccc5scnc5c4F)ccnc3s2)CCCN1C [Example 61, N-(2-((2S,3S)-1,2-dimethylpiperidin-3-yl)thieno[2,3-b]pyridin-4-yl)-4-fluorobenzo[d]thiazol-5-amine]
≤ 10 | CCN1CCC[C@H](c2cc3c(Nc4ccc5scnc5c4F)ccnc3s2)[C@H]1C [Example 62, N-(2-((2R,3S)-1-ethyl-2-methylpiperidin-3-yl)thieno[2,3-b]pyridin-4-yl)-4-fluorobenzo[d]thiazol-5-amine]
≤ 10 | CCN1CCC[C@@H](c2cc3c(Nc4ccc5scnc5c4F)ccnc3s2)[C@@H]1C [Example 63, N-(2-((2S,3R)-1-ethyl-2-methylpiperidin-3-yl)thieno[2,3-b]pyridin-4-yl)-4-fluorobenzo[d]thiazol-5-amine]

From patent US11168093B2, “Thienopyridine inhibitors of RIPK2” (Celgene Corporation, priority 2018, dated 2021)
